Data on 15 compounds can be found in patent publication US10266552B2, “Condensed heterocyclic compound having cycloalkylpyridyl group or salt thereof, agricultural and horticultural insecticide comprising the compound, and method for using the insecticide” (Nihon Nohyaku Co., Ltd., priority 2015, dated 2019).

Common to all, as to assay type: in vivo
One assay deals with Laodelphax striatella. Briefly: Test of insecticidal effect on Laodelphax striatella (rice seedling dip). The settings on record: Laodelphax striatellus, 192 h, rice seedlings dipped for 30 seconds, 3rd-instar larvae, 8 days after the inoculation, read-out: insecticidal effect (corrected mortality rate), activity level. From the text: Test of Insecticidal Effect on Laodelphax striatella
The condensed heterocyclic compounds represented by the general formula (1) of the present invention or salts thereof were separately dispersed in water and diluted to 500 ppm, and rice plant seedlings (variety: Nihonbare) were dipped in the agrochemical dispersions for 30 seconds. After air-dried, each seedling was put into a separate glass test tube and inoculated with ten 3rd-instar larvae of Laodelphax striatella, and then the glass test tubes were capped with cotton plugs. At 8 days after the inoculation, the numbers of surviving larvae and dead larvae were counted, the corrected mortality rate was calculated according to the formula shown below, and the insecticidal effect was evaluated according to the criterion of Test Example 1. Corrected mortality rate (%)=100×(Survival rate in a non-treatment plot−Survival rate in a treatment plot)/Survival rate in a non-treatment plot

The test system of the next assay is Myzus persicae. Briefly: Test of control effect on Myzus persicae (foliar application, potted Chinese cabbage). To be noted: 144 h, foliar application to potted Chinese cabbage plants, 6 days after the foliar application, read-out: control effect (control rate), activity level. An excerpt:
Test of Control Effect on Myzus persicae Chinese cabbage plants were planted in plastic pots (diameter: 8 cm, height: 8 cm), green peach aphids (Myzus persicae) were propagated on the plants, and the number of surviving green peach aphids in each pot was counted. The condensed heterocyclic compounds represented by the general formula (1) of the present invention or salts thereof were separately dispersed in water and diluted to 500 ppm, and the agrochemical dispersions were applied to the foliage of the potted Chinese cabbage plants. After the plants were air-dried, the pots were kept in a greenhouse. At 6 days after the foliar application, the number of surviving green peach aphids on the Chinese cabbage plant in each pot was counted, the control rate was calculated according to the formula shown below, and the control effect was evaluated according to the criterion shown below. Control rate=100−{(T×Ca)/(Ta×C)}×100 Ta: the number of survivors before the foliar application in a treatment plot T: the number of survivors after the foliar application in a treatment plot Ca: the number of survivors before the foliar application in a non-treatment plot C: the number of survivors after the foliar application in a non-treatment plot Criterion A: the control rate is 100%. B: the control rate is 90 to 99%. C: the control rate is 80 to 89%. D: the control rate is 50 to 79%.

The next assay relates to Plutella xylostella. Put plainly: Test of insecticidal effect on Plutella xylostella (dip of Chinese cabbage seedlings with laid eggs). The settings on record: 144 h, seedlings with laid eggs dipped for about 30 seconds, 25° C., 6 days after the dip treatment, read-out: insecticidal effect (corrected mortality rate), activity level. An excerpt:
Test of Insecticidal Effect on Plutella xylostella
Adults of Plutella xylostella were released onto Chinese cabbage seedlings and allowed to lay eggs thereon. At 2 days after the release of the adults, the Chinese cabbage seedlings with laid eggs were dipped for about 30 seconds in agrochemical dispersions diluted to 500 ppm, each of which contained a different condensed heterocyclic compound represented by the general formula (1) of the present invention as an active ingredient. The seedlings were air-dried and then kept in a thermostatic chamber at 25° C. At 6 days after the dip treatment, the number of hatched larvae per plot was counted, the mortality rate was calculated according to the formula shown below, and the insecticidal effect was evaluated according to the criterion of Test Example 1. This test was conducted in triplicate using 10 adults of Plutella xylostella per plot. Corrected mortality rate (%)=100×(Number of hatched larvae in a non-treatment plot−Number of hatched larvae in a treatment plot)/Number of hatched larvae in a non-treatment plot

One may read the mortality as the percentage killed. For the compound `CCS(=O)(=O)c1cc(C2CC2)cnc1-c1nc2cc(C(F)(F)F)cnc2n1C` [Compound 1-15], the mortality at 500 ppm in the assay with Laodelphax striatella and with Plutella xylostella was 100% throughout. The pest or weed control at 500 ppm in the assay on Myzus persicae amounted to 100%.
`CCSc1cc(C2CC2)cnc1-c1nc2cc(C(F)(F)F)cnc2o1` [Compound 3-13, 2-(3-ethylthio-5-cyclopropylpyridin-2-yl)-5-trifluoromethyl-oxazolo[5,4-b]pyridine]: the mortality at 500 ppm in the assay on Laodelphax striatella and in the assay on Plutella xylostella was 100% throughout. Further, in the assay on Myzus persicae, the pest or weed control at 500 ppm was determined as 100%.
As to `CCS(=O)(=O)c1cc(C2CC2)cnc1-c1nc2cc(C(F)(F)F)cnc2o1` [Compound 3-15, 2-(3-ethylsulfonyl-5-cyclopropylpyridin-2-yl)-5-trifluoromethyl-oxazolo[5,4-b]pyridine], the mortality at 500 ppm with Laodelphax striatella and in the assay on Plutella xylostella was 100% throughout. For the same compound, in the assay on Myzus persicae, the pest or weed control at 500 ppm was 100%.
In the case of `CCSc1cc(C2CC2)cnc1-c1nc2cc(C(F)(F)F)cnc2s1` [Compound 5-13], the mortality at 500 ppm in the assay with Laodelphax striatella and in the assay with Plutella xylostella was 100% throughout. Besides, the pest or weed control at 500 ppm in the assay on Myzus persicae is 100%.
On to `CCS(=O)(=O)c1cc(C2CC2)cnc1-c1nc2cc(C(F)(F)F)cnc2s1` [Compound 5-15], for which the mortality at 500 ppm in the assay with Laodelphax striatella and in the assay with Plutella xylostella was 100% throughout. In the assay on Myzus persicae, the pest or weed control at 500 ppm was determined as 100%.
`CCSc1cc(C2CC2)cnc1-c1nc2cc(C(F)(F)F)ccc2n1C` [Compound 7-13, 2-(3-ethylthio-5-cyclopropylpyridin-2-yl)-1-methyl-5-trifluoromethyl-1H-benzimidazole]: the mortality at 500 ppm in the assay on Laodelphax striatella and in the assay on Plutella xylostella was 100% each time. The pest or weed control at 500 ppm with Myzus persicae worked out at 100%.
Regarding `CC[S+]([O-])c1cc(C2CC2)cnc1-c1nc2cc(C(F)(F)F)ccc2n1C` (centres unmarked) [Compound 7-14, 2-(3-ethylsulfinyl-5-cyclopropylpyridin-2-yl)-1-methyl-5-trifluoromethyl-1H-benzimidazole], the mortality at 500 ppm in the assay with Laodelphax striatella and in the assay on Plutella xylostella was 100% each time. Further, the pest or weed control at 500 ppm with Myzus persicae was found to be 100%.
`CCS(=O)(=O)c1cc(C2CC2)cnc1-c1nc2cc(C(F)(F)F)ccc2n1C` [Compound 7-15, 2-(3-ethylsulfonyl-5-cyclopropylpyridin-2-yl)-1-methyl-5-trifluoromethyl-1H-benzimidazole]: the mortality at 500 ppm in the assay on Laodelphax striatella and with Plutella xylostella was 100% throughout. In the assay on Myzus persicae, the pest or weed control at 500 ppm worked out at 100%.
Take `CCSc1cc(C2CC2)cnc1-c1nc2cc(C(F)(F)F)ccc2s1` [Compound 9-10, 2-(3-ethylthio-5-cyclopropylpyridin-2-yl)-5-trifluoromethyl-benzothiazole]: the mortality at 500 ppm in the assay with Laodelphax striatella and in the assay with Plutella xylostella was 100% throughout. In addition, the pest or weed control at 500 ppm with Myzus persicae was found to be 100%.
Consider `CCS(=O)(=O)c1cc(C2CC2)cnc1-c1nc2cc(C(F)(F)F)ccc2s1` [Compound 9-12, 2-(3-ethylsulfonyl-5-cyclopropylpyridin-2-yl)-5-trifluoromethyl-benzothiazole], for which the mortality at 500 ppm in the assay with Laodelphax striatella and in the assay on Plutella xylostella was 100% each time. Further, the pest or weed control at 500 ppm in the assay on Myzus persicae worked out at 100%.
For `CCS(=O)(=O)c1cc(C2(C(=O)O)CC2)cnc1-c1nc2cc(C(F)(F)F)cnc2n1C` [Compound 11-1], the mortality at 500 ppm in the assay on Laodelphax striatella and with Plutella xylostella was 100% in each case. For the same compound, the pest or weed control at 500 ppm in the assay on Myzus persicae turned out to be 100%.
In the case of `CCS(=O)(=O)c1cc(C2(C(=O)OC)CC2)cnc1-c1nc2cc(C(F)(F)F)cnc2n1C` [Compound 11-2], the mortality at 500 ppm in the assay on Laodelphax striatella and in the assay on Plutella xylostella was 100% throughout. The pest or weed control at 500 ppm in the assay on Myzus persicae is 100%.
On to `CCS(=O)(=O)c1cc(C2(C(N)=O)CC2)cnc1-c1nc2cc(C(F)(F)F)cnc2n1C` [Compound 11-6], for which the mortality at 500 ppm with Laodelphax striatella and in the assay on Plutella xylostella was 100% each time. The pest or weed control at 500 ppm in the assay with Myzus persicae was 100%.
As for `CCS(=O)(=O)c1cc(C2(C#N)CC2)cnc1-c1nc2cc(C(F)(F)F)cnc2n1C` [Compound 11-13], the mortality at 500 ppm with Laodelphax striatella and with Plutella xylostella was 100% each time. Besides, the pest or weed control at 500 ppm with Myzus persicae worked out at 100%.
On to `CCS(=O)(=O)c1cc(C2CC2C(=O)OC)cnc1-c1nc2cc(C(F)(F)F)cnc2n1C` (centres unmarked) [Compound 11-82], for which the mortality at 500 ppm with Laodelphax striatella was 100%. In addition, the pest or weed control at 500 ppm with Myzus persicae is 100%.
